According to ChEMBL document CHEMBL1201861, “Genomics of Drug Sensitity in Cancer screening data, Wellcome Trust Sanger Institute”:
pIC50: −log10 of the molar value.

Experiments:
RPMI-2650 = test: cells; type: functional, cell-based; conditions: Homo sapiens
Description: SANGER: Inhibition of human RPMI-2650 cell growth in a cell viability assay.

BB65-RCC = test: cells; type: functional, cell-based; conditions: Homo sapiens;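 further: growth inhibition of the cell line, measured with a cell viability assay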
Description: SANGER: Inhibition of human BB65-RCC cell growth in a cell viability assay.

ES4 = test: cells; type: functional, cell-based; conditions: Homo sapiens;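 further: growth inhibition of human ES4 cells, read out by a cell viability assay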
Description: SANGER: Inhibition of human ES4 cell growth in a cell viability assay.

ALL-PO = test: cells; type: functional, cell-based; conditions: Homo sapiens;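 further: growth inhibition of ALL-PO cells, read out by a cell viability assay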
Description: SANGER: Inhibition of human ALL-PO cell growth in a cell viability assay.

COLO-320-HSR = test: cells; type: functional, cell-based; conditions: Homo sapiens;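 further: growth inhibition of COLO-320-HSR cells, determined with a cell viability assay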
Description: SANGER: Inhibition of human COLO-320-HSR cell growth in a cell viability assay.

DoTc2-4510 = test: cells; type: functional, cell-based; conditions: Homo sapiens
NCI-H1395 = test: cells; type: functional, cell-based; conditions: Homo sapiens;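 further: cell viability assay read-out quantifying reduced proliferation of human NCI-H1395 cells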
Description: SANGER: Inhibition of human NCI-H1395 cell growth in a cell viability assay.

NCI-H1581 = test: cells; type: functional, cell-based; conditions: Homo sapiens;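 further: cell growth inhibition read out by a viability assay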
Description: SANGER: Inhibition of human NCI-H1581 cell growth in a cell viability assay.

MOLT-4 = test: cells; type: functional, cell-based; conditions: Homo sapiens;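 further: growth inhibition of MOLT-4 cells, determined with a cell viability readout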
Description: SANGER: Inhibition of human MOLT-4 cell growth in a cell viability assay.

NB13 = test: cells; type: functional, cell-based; conditions: Homo sapiens;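 further: cell viability readout measuring growth inhibition of human NB13 cells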
Description: SANGER: Inhibition of human NB13 cell growth in a cell viability assay.

LB2241-RCC = test: cells; type: functional, cell-based; conditions: Homo sapiens;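 further: cell viability assay measuring how strongly the cultured human renal carcinoma line is prevented from growing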
Description: SANGER: Inhibition of human LB2241-RCC cell growth in a cell viability assay.

GT3TKB = test: cells; type: functional, cell-based; conditions: Homo sapiens;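 further: growth inhibition of the cell line, read out with a cell viability assay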
Description: SANGER: Inhibition of human GT3TKB cell growth in a cell viability assay.

VA-ES-BJ = test: cells; type: functional, cell-based; conditions: Homo sapiens;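 further: growth inhibition of the VA-ES-BJ cell line, read out by a cell viability assay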
Description: SANGER: Inhibition of human VA-ES-BJ cell growth in a cell viability assay.

BV-173 = test: cells; type: functional, cell-based; conditions: Homo sapiens
Description: SANGER: Inhibition of human BV-173 cell growth in a cell viability assay.

MIA PaCa-2 = test: cells; type: functional, cell-based; conditions: Homo sapiens;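 further: growth inhibition of MIA PaCa-2 cells, read out with a cell viability assay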
Description: SANGER: Inhibition of human MIA-PaCa-2 cell growth in a cell viability assay.

RS4-11 = test: cells; type: functional, cell-based; conditions: Homo sapiens;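 further: growth inhibition of RS4-11 cells, read out by a cell viability assay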
Description: SANGER: Inhibition of human RS4-11 cell growth in a cell viability assay.

NKM-1 = test: cells; type: functional, cell-based; conditions: Homo sapiens;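 further: growth inhibition of NKM-1 cells, read out with a cell viability assay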
Description: SANGER: Inhibition of human NKM-1 cell growth in a cell viability assay.

A4-Fuk = test: cells; type: functional, cell-based; conditions: Homo sapiens;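 further: growth inhibition of A4-Fuk cells, read out by a cell viability assay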
Description: SANGER: Inhibition of human A4-Fuk cell growth in a cell viability assay.

GB-1 = test: cells; type: functional, cell-based; conditions: Homo sapiens;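 further: growth of GB-1 cells judged by a viability assay, IC50 marks the concentration inhibiting growth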
Description: SANGER: Inhibition of human GB-1 cell growth in a cell viability assay.

JAR = test: cells; type: functional, cell-based; conditions: Homo sapiens;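 further: growth inhibition of human JAR cells determined with a cell viability assay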
Description: SANGER: Inhibition of human JAR cell growth in a cell viability assay.

TGBC24TKB = test: cells; type: functional, cell-based; conditions: Homo sapiens;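 further: growth inhibition of human TGBC24TKB cells, read out with a cell viability assay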
Description: SANGER: Inhibition of human TGBC24TKB cell growth in a cell viability assay.

LU-165 = test: cells; type: functional, cell-based; conditions: Homo sapiens
Description: SANGER: Inhibition of human LU-165 cell growth in a cell viability assay.

A-431 = test: cells; type: functional, cell-based; conditions: Homo sapiens;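 further: growth inhibition of A-431 cells, determined with a cell viability read-out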
Description: SANGER: Inhibition of human A431 cell growth in a cell viability assay.

IST-SL1 = test: cells; type: functional, cell-based; conditions: Homo sapiens;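 further: growth inhibition of human IST-SL1 cells, read out with a cell viability assay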
Description: SANGER: Inhibition of human IST-SL1 cell growth in a cell viability assay.

HL-60 = test: cells; type: functional, cell-based; conditions: Homo sapiens;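 further: growth inhibition of human HL-60 cells, read out with a cell viability assay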
Description: SANGER: Inhibition of human HL-60 cell growth in a cell viability assay.

U-266 = test: cells; type: functional, cell-based; conditions: Homo sapiens
Description: SANGER: Inhibition of human U-266 cell growth in a cell viability assay.

MOLT-16 = test: cells; type: functional, cell-based; conditions: Homo sapiens;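 further: growth inhibition of human MOLT-16 cells, read out with a cell viability assay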
Description: SANGER: Inhibition of human MOLT-16 cell growth in a cell viability assay.

NCI-H526 = test: cells; type: functional, cell-based; conditions: Homo sapiens;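 further: growth inhibition of the human NCI-H526 cell line, measured by a cell viability assay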
Description: SANGER: Inhibition of human NCI-H526 cell growth in a cell viability assay.

EW-18 = test: cells; type: functional, cell-based; conditions: Homo sapiens;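 further: growth inhibition of EW-18 cells, read out by a cell viability assay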
Description: SANGER: Inhibition of human EW-18 cell growth in a cell viability assay.

COLO-829 = test: cells; type: functional, cell-based; conditions: Homo sapiens
Description: SANGER: Inhibition of human COLO-829 cell growth in a cell viability assay.

GI-ME-N = test: cells; type: functional, cell-based; conditions: Homo sapiens;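 further: growth inhibition of human GI-ME-N cells, read out with a cell viability assay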
Description: SANGER: Inhibition of human GI-ME-N cell growth in a cell viability assay.

KM12 = test: cells; type: functional, cell-based; conditions: Homo sapiens;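 further: KM12 cell growth inhibition, read out with a cell viability assay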
Description: SANGER: Inhibition of human KM12 cell growth in a cell viability assay.

NCI-H2126 = test: cells; type: functional, cell-based; conditions: Homo sapiens;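 further: growth inhibition of the cancer cell line, determined with a cell viability readout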
Description: SANGER: Inhibition of human NCI-H2126 cell growth in a cell viability assay.

NCI-H1651 = test: cells; type: functional, cell-based; conditions: Homo sapiens;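 further: Read-out is a cell viability assay, with IC50 expressing inhibition of NCI-H1651 cell growth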
Description: SANGER: Inhibition of human NCI-H1651 cell growth in a cell viability assay.

LU-134-A = test: cells; type: functional, cell-based; conditions: Homo sapiens
Description: SANGER: Inhibition of human LU-134-A cell growth in a cell viability assay.

ACN = test: cells; type: functional, cell-based; conditions: Homo sapiens;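 further: growth inhibition of the human ACN cell line, read out via cell viability testing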
Description: SANGER: Inhibition of human ACN cell growth in a cell viability assay.

NB69 = test: cells; type: functional, cell-based; conditions: Homo sapiens;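 further: growth inhibition of NB69 cells, determined by a cell viability assay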
Description: SANGER: Inhibition of human NB69 cell growth in a cell viability assay.

L-363 = test: cells; type: functional, cell-based; conditions: Homo sapiens
Description: SANGER: Inhibition of human L-363 cell growth in a cell viability assay.

LB831-BLC = test: cells; type: functional, cell-based; conditions: Homo sapiens;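 further: growth inhibition of LB831-BLC cells, read out with a cell viability assay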
Description: SANGER: Inhibition of human LB831-BLC cell growth in a cell viability assay.

NCI-H1299 = test: cells; type: functional, cell-based; conditions: Homo sapiens;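 further: growth inhibition of human NCI-H1299 cells, read out by a cell viability assay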
Description: SANGER: Inhibition of human NCI-H1299 cell growth in a cell viability assay.

MFH-ino = test: cells; type: functional, cell-based; conditions: Homo sapiens;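 further: growth inhibition of human MFH-ino cells, read out by a cell viability assay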
Description: SANGER: Inhibition of human MFH-ino cell growth in a cell viability assay.

BCPAP = test: cells; type: functional, cell-based; conditions: Homo sapiens;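 further: growth inhibition of BCPAP cells, read out in a cell viability assay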
Description: SANGER: Inhibition of human BCPAP cell growth in a cell viability assay.

MKN-45 = test: cells; type: functional, cell-based; conditions: Homo sapiens;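 further: growth inhibition of human MKN-45 cells, measured with a cell viability assay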
Description: SANGER: Inhibition of human MKN45 cell growth in a cell viability assay.

EM-2 = test: cells; type: functional, cell-based; conditions: Homo sapiens;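 further: growth inhibition of EM-2 cells, read out with a cell viability assay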
Description: SANGER: Inhibition of human EM-2 cell growth in a cell viability assay.

HH = test: cells; type: functional, cell-based; conditions: Homo sapiens
Description: SANGER: Inhibition of human HH cell growth in a cell viability assay.

DJM-1 = test: cells; type: functional, cell-based; conditions: Homo sapiens;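 further: growth inhibition of human DJM-1 cells, read out by a cell viability assay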
Description: SANGER: Inhibition of human DJM-1 cell growth in a cell viability assay.

KY821 = test: cells; type: functional, cell-based; conditions: Homo sapiens;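 further: growth inhibition of human KY821 cells, read out by a cell viability assay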
Description: SANGER: Inhibition of human KY821 cell growth in a cell viability assay.

LS-411N = test: cells; type: functional, cell-based; conditions: Homo sapiens
A204 = test: cells; type: functional, cell-based; conditions: Homo sapiens;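 further: growth inhibition of human A204 cells, read out with a cell viability assay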
Description: SANGER: Inhibition of human A204 cell growth in a cell viability assay.

CW-2 = test: cells; type: functional, cell-based; conditions: Homo sapiens;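 further: growth inhibition of CW-2 cells, read out by a cell viability assay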
Description: SANGER: Inhibition of human CW-2 cell growth in a cell viability assay.

NCI-H720 = test: cells; type: functional, cell-based; conditions: Homo sapiens;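 further: growth inhibition of human NCI-H720 cells determined by a cell viability assay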
Description: SANGER: Inhibition of human NCI-H720 cell growth in a cell viability assay.

SK-LMS-1 = test: cells; type: functional, cell-based; conditions: Homo sapiens;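 further: growth inhibition of human SK-LMS-1 cells, read out with a cell viability assay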
Description: SANGER: Inhibition of human SK-LMS-1 cell growth in a cell viability assay.

P30-OHK = test: cells; type: functional, cell-based; conditions: Homo sapiens;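 further: growth inhibition of the P30-OHK cell line, read out with a cell viability assay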
Description: SANGER: Inhibition of human P30-OHK cell growth in a cell viability assay.

CP66-MEL = test: cells; type: functional, cell-based; conditions: Homo sapiens;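 further: growth inhibition of CP66-MEL cells determined in a cell viability assay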
Description: SANGER: Inhibition of human CP66-MEL cell growth in a cell viability assay.

RXF 393 = test: cells; type: functional, cell-based; conditions: Homo sapiens;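 further: growth inhibition of human RXF 393 cells, read out with a cell viability assay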
Description: SANGER: Inhibition of human RXF393 cell growth in a cell viability assay.

MEG-01 = test: cells; type: functional, cell-based; conditions: Homo sapiens;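 further: growth inhibition of MEG-01 cells, read out by a cell viability assay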
Description: SANGER: Inhibition of human MEG-01 cell growth in a cell viability assay.

IGROV-1 = test: cells; type: functional, cell-based; conditions: Homo sapiens;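 further: reduction of IGROV-1 cell growth, read out with a viability assay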
Description: SANGER: Inhibition of human IGROV-1 cell growth in a cell viability assay.

DEL = test: cells; type: functional, cell-based; conditions: Homo sapiens
Description: SANGER: Inhibition of human DEL cell growth in a cell viability assay.

IM-9 = test: SANGER: Inhibition of human IM-9 cell growth in a cell viability assay.; type: functional, cell-based
MV4-11 = test: cells; type: functional, cell-based, MV-4-11; conditions: Homo sapiens
Description: SANGER: Inhibition of human MV-4-11 cell growth in a cell viability assay.

SW982 = test: cells; type: functional, cell-based; conditions: Homo sapiens
Description: SANGER: Inhibition of human SW982 cell growth in a cell viability assay.

MZ2-MEL = test: cells; type: functional, cell-based; conditions: Homo sapiens
Description: SANGER: Inhibition of human MZ2-MEL cell growth in a cell viability assay.

Becker = test: cells; type: functional, cell-based; conditions: Homo sapiens
Description: SANGER: Inhibition of human Becker cell growth in a cell viability assay.

LS-123 = test: cells; type: functional, cell-based; conditions: Homo sapiens
Description: SANGER: Inhibition of human LS-123 cell growth in a cell viability assay.

BB49-HNC = test: cells; type: functional, cell-based; conditions: Homo sapiens
Description: SANGER: Inhibition of human BB49-HNC cell growth in a cell viability assay.

N#C/C(=C1/Nc2ccccc2S1)c1ccnc(NCCc2cccnc2)n1
pIC50 (RPMI-2650): 5.59
pIC50 (BB65-RCC): 5.17
pIC50 (ES4): < 5.10
pIC50 (ALL-PO): 5.75
pIC50 (COLO-320-HSR): < 5.10
pIC50 (DoTc2-4510): 5.68
pIC50 (NCI-H1395): < 5.10
pIC50 (NCI-H1581): < 5.10
pIC50 (MOLT-4): < 5.10
pIC50 (NB13): < 5.10
pIC50 (LB2241-RCC): < 5.10
pIC50 (GT3TKB): < 5.10
pIC50 (VA-ES-BJ): < 5.10
pIC50 (BV-173): < 5.10
pIC50 (MIA PaCa-2): 6.01
pIC50 (RS4-11): 5.41
pIC50 (NKM-1): 5.64
pIC50 (A4-Fuk): < 5.10
pIC50 (GB-1): < 5.10
pIC50 (JAR): < 5.10
pIC50 (TGBC24TKB): < 5.10
pIC50 (LU-165): < 5.10
pIC50 (A-431): < 5.10
pIC50 (IST-SL1): < 5.10
pIC50 (HL-60): < 5.10
pIC50 (U-266): < 5.10
pIC50 (MOLT-16): 5.86
pIC50 (NCI-H526): < 5.10
pIC50 (EW-18): < 5.10
pIC50 (COLO-829): < 5.10
pIC50 (GI-ME-N): < 5.10
pIC50 (KM12): < 5.10
pIC50 (NCI-H2126): < 5.10
pIC50 (NCI-H1651): < 5.10
pIC50 (LU-134-A): < 5.10
pIC50 (ACN): < 5.10
pIC50 (NB69): < 5.10
pIC50 (L-363): < 5.10
pIC50 (LB831-BLC): 5.24
pIC50 (NCI-H1299): 5.32
pIC50 (MFH-ino): < 5.10
pIC50 (BCPAP): 5.35
pIC50 (MKN-45): < 5.10
pIC50 (EM-2): < 5.10
pIC50 (HH): < 5.10
pIC50 (DJM-1): < 5.10
pIC50 (KY821): < 5.10
pIC50 (LS-411N): < 5.10
pIC50 (A204): 5.13
pIC50 (CW-2): < 5.10
pIC50 (NCI-H720): < 5.10
pIC50 (SK-LMS-1): 5.13
pIC50 (P30-OHK): 5.32
pIC50 (CP66-MEL): < 5.10
pIC50 (RXF 393): < 5.10
pIC50 (MEG-01): < 5.10
pIC50 (IGROV-1): 6.22
pIC50 (DEL): 5.20
pIC50 (IM-9): < 5.10
pIC50 (MV4-11): 5.84
pIC50 (SW982): 5.75
pIC50 (MZ2-MEL): < 5.10
pIC50 (Becker): 5.36
pIC50 (LS-123): < 5.10
pIC50 (BB49-HNC): 5.86
